Data on four compounds can be found in paper PMC6100189, “In Silico Docking and In Vitro Approaches towards BACE1 and Cholinesterases Inhibitory Effect of Citrus Flavanones” (Molecules : A Journal of Synthetic Chemistry and Natural …, 2018).

In data set [1] the target is T1, BACE1 (Homo sapiens, UniProt P56817).
T1 construct: purchased Invitrogen (Pan Vera, Madison, WI, USA)
Nature of the data set: BACE1 inhibition assay (Invitrogen kit, Rh-[…]-Quencher substrate). In kind it is biochemical.
Description: (§3) The BACE1 kit from Invitrogen (Pan Vera, Madison, WI, USA) was used for the measurement of BACE1 activity. α-Secretase (tumor necrosis factor-α converting enzyme, TACE) and its fluorogenic substrate were purchased from R&D Systems (Minneapolis, MN, USA). Elastase, chymotrypsin, trypsin, and their substrates were obtained from Sigma-Aldrich.
(§4) BACE1, TACE, chymotrypsin, trypsin, and elastase assays were carried out according to previously described methods [33]. BACE1, TACE, trypsin, chymotrypsin, and elastase assays were carried out using Rh-[sequence]-Quencher, Mca-PLAQAV-Dpa-RSSSR-NH2, N-benzoyl-l-Arg-pNA, N-benzoyl-L-Tyr-pNA, and N-succinyl-Ala-Ala-Ala-pNA as substrates, respectively.

The target of data set [2] is T2, AChE (Electrophorus electricus, UniProt O42275).
T2 construct: purchased Sigma-Aldrich (St. Louis, MO, USA)
T2 sequence (O42275 24-633): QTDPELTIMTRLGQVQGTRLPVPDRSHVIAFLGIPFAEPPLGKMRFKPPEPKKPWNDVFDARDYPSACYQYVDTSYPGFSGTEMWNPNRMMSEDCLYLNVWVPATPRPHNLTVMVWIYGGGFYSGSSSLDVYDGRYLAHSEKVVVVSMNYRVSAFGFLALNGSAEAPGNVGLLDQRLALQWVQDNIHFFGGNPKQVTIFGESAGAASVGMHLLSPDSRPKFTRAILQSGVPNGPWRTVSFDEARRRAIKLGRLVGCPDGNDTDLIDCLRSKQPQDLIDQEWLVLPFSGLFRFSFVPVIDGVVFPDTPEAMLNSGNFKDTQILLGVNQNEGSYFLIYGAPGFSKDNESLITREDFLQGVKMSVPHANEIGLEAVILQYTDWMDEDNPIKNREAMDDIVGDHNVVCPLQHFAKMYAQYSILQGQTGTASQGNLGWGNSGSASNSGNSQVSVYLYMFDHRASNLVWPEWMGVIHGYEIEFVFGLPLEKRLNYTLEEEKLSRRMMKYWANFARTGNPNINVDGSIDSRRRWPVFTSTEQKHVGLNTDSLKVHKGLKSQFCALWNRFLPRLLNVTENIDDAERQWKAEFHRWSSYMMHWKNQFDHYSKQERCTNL
Nature of the data set: AChE inhibition, modified Ellman colorimetric method. In kind it is biochemical. As to conditions: mean ± S.E. of triplicate experiments. In general terms: In Ellman's method for cholinesterases, released thiocholine reacts with DTNB.
Description: (§5) AChE and BChE inhibitory activities were assessed by a modified version of the Ellman colorimetric method [34]. Each reaction mixture consisted of sodium phosphate buffer (pH 7.4), test sample solution, and either AChE (electrophorus electricus, 0.8 U/mL) or BChE (equine serum, 0.8 U/mL) solution, which was then mixed and incubated for 15 min at room temperature. Reactions were initiated upon addition of DTNB and substrate (0.75 mM).
All reactions were performed in 96-well plates in triplicate, and recorded using a microplate spectrophotometer (Molecular Devices, Sunnyvale, CA, USA).

Data set [3] has as its target T3, BChE (Equus caballus, UniProt P81908).
T3 construct: BChE (equine serum, 0.8 U/mL); purchased Sigma-Aldrich (St. Louis, MO, USA); host or cells: equine serum
Nature of the data set: BChE inhibition, modified Ellman colorimetric method. In kind it is biochemical, equine. The following applies: mean ± S.E. of triplicate experiments.
Description: as §5
Enzymatic hydrolysis, mediated by AChE or BChE, was monitored according to the formation of yellow 5-thio-2-nitrobenzoate anions at 405 nm for 15 min, which were produced by the reaction of DTNB with thiocholine released from ACh or BCh. All reactions were performed in 96-well plates in triplicate, and recorded using a microplate spectrophotometer (Molecular Devices, Sunnyvale, CA, USA).

The target in data set [4] is T4, α-secretase (tumor necrosis factor-α converting enzyme, TACE) (Homo sapiens, UniProt P78536).
T4 construct: purchased R&D Systems (Minneapolis, MN, USA)
T4 sequence (P78536 215-824): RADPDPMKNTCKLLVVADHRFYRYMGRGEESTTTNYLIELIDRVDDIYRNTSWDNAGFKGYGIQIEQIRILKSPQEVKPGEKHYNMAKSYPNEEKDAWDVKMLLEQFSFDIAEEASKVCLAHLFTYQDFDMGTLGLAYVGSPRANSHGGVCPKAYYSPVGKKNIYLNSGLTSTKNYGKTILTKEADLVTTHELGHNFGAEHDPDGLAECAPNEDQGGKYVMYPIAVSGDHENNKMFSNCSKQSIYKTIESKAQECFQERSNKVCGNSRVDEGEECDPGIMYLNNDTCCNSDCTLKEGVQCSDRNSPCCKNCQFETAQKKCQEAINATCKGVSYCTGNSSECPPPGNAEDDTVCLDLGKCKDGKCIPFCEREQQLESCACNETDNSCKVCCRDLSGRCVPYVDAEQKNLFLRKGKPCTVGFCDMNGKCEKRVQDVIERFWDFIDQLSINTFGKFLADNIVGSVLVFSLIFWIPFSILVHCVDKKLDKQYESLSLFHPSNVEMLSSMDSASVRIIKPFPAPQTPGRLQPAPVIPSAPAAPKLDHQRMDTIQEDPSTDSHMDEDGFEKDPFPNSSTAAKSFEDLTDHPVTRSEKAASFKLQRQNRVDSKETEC
The experiment in a line: TACE (α-secretase) inhibition assay. As to conditions: mean ± S.E., read-out: Inhibitory activities (%) TACE; for inhibition at 10 µM: sample 10 μM; for inhibition at 100 µM: sample 100 μM. Format: biochemical.
Description: as §3, §4

Data set [5] concerns Trypsin. Nature of the data set: Trypsin inhibition assay. Format: biochemical. The following applies: mean ± S.E.
Description: as §3, §4
The target of data set [6] is T5, Chymotrypsin (Bos taurus, UniProt P00766).
T5 construct: purchased Sigma-Aldrich
The experiment in a line: Chymotrypsin inhibition assay. In kind it is biochemical. The following applies: mean ± S.E., read-out: Inhibitory activities (%) Chymotrypsin; for inhibition at 10 µM: sample 10 μM; for inhibition at 100 µM: sample 100 μM.
Description: as §3, §4

In data set [7] the target is T6, Elastase (Sus scrofa, UniProt P00772).
T6 construct: purchased Sigma-Aldrich
T6 sequence (P00772 27-266): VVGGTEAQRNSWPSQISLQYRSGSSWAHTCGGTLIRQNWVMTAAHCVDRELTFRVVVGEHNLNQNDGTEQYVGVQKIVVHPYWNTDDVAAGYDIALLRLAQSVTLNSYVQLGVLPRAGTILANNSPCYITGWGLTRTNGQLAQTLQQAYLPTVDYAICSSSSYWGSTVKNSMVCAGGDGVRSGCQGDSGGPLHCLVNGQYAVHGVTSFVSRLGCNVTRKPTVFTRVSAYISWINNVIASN
The experiment in a line: Elastase inhibition assay. Format: biochemical. The following applies: mean ± S.E., read-out: Inhibitory activities (%) Elastase; for inhibition at 10 µM: sample 10 μM; for inhibition at 100 µM: sample 100 μM.
Description: as §3, §4

For data set [8], the target named is T1, BACE1. Nature of the data set: Inhibition kinetics on BACE1 (Dixon and Lineweaver–Burk plots). In kind it is biochemical. As to conditions: for Inhibition mode on BACE1: Dixon and Lineweaver–Burk plots; for Ki: Dixon plot. As for the experimental part: (§1) The inhibitory constant (Ki) was obtained by interpretation of the Dixon plot, and Vmax and Km were defined by Lineweaver–Burk plots, using the initial velocities obtained over a substrate concentration range. These kinetic parameters were calculated using the Enzyme Kinetic™ module of SigmaPlot™ version 12.3 (Systat Software, Inc., San Jose, CA, USA).

Data set [9] deals with T2, AChE. The experiment in a line: Inhibition kinetics on AChE (Dixon and Lineweaver–Burk plots). Format: biochemical. As to conditions: for Inhibition mode on AChE: Dixon and Lineweaver–Burk plots; for Ki: Dixon plot. As for the experimental part:
(§2) AChE and BChE inhibitory activities were assessed by a modified version of the Ellman colorimetric method. Each reaction mixture consisted of sodium phosphate buffer (pH 7.4), test sample solution, and either AChE (electrophorus electricus, 0.8 U/mL) or BChE (equine serum, 0.8 U/mL) solution, which was then mixed and incubated for 15 min at room temperature. Reactions were initiated upon addition of DTNB and substrate (0.75 mM).
as §1

Data set [10] relates to cholinesterases. The following applies: several studies ref 20, 21; cited from earlier work.
In data set [11] the test system is brains of rats. The following applies: pre-administration 40 mg/kg, oral; no reference given; cited from earlier work.
The subject of data set [12] is ECV304/C6 co-culture model. The following applies: in vitro ECV304/C6 co-culture model ref 27; cited from earlier work.
Data set [13] has as its system rat brain. As to conditions: cited from earlier work.
The test system of data set [14] is AChE. As to conditions: previous study ref 19; read-out: IC50 against AChE; cited from earlier work.
Data set [15] concerns the target T3, BChE. Nature of the data set: Inhibition kinetics on BChE (Dixon and Lineweaver–Burk plots). Format: biochemical, equine. On the procedure:
as §2, §1

Data set [16] concerns APP/PS1 Tg mice. The following applies: oral 100 mg/kg for 10 days ref 16; cited from earlier work.
Data set [17] concerns APPswe/PS1dE9 Tg mice. The following applies: chronic administration for 16 weeks ref 18; cited from earlier work.
The subject of data set [18] is mice. As to conditions: orally 4.5 mg/kg body weight of mice ref 23; cited from earlier work.

Structures are written as SMILES.

Usually IC50 stands for the midpoint of a concentration-inhibition curve. For orientation: Ki means the equilibrium dissociation constant of an inhibitor or competing ligand from its target. Low values mean a stronger hold on the target, high ones a looser hold on the target.

T1 sequence (P56817 46-501): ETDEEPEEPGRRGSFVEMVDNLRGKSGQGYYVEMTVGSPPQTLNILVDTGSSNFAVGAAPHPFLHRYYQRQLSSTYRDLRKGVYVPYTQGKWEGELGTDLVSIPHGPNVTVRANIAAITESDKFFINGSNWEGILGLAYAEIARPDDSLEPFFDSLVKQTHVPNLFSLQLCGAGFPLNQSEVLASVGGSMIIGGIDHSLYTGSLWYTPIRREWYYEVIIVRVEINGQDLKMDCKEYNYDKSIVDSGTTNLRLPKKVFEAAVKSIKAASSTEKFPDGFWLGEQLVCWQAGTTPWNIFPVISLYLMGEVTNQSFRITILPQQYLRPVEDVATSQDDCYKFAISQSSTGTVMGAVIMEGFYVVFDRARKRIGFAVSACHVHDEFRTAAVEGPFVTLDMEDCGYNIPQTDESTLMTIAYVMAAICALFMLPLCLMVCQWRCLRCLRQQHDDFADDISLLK
T3 sequence (P81908 whole entry): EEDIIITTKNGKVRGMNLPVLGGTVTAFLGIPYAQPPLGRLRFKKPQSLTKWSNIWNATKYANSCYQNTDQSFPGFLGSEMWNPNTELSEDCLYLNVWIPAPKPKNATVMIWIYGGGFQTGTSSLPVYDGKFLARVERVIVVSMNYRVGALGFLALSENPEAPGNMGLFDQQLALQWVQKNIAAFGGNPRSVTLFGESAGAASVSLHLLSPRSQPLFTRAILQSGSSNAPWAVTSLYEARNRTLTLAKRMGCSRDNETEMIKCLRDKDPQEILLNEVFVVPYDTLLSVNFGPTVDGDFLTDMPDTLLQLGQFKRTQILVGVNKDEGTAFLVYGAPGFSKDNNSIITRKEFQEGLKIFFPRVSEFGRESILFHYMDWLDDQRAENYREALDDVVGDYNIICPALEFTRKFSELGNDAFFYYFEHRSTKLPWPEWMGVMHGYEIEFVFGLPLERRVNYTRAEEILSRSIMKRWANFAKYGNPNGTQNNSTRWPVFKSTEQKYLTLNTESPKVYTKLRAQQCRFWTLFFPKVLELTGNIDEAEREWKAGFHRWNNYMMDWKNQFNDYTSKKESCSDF

In the case of `COc1ccc(C2CC(=O)c3c(O)cc(O)cc3O2)cc1O` (stereo not drawn) [Hesperetin, 4′-methoxy-3′,5,7-trihydroxyflavanone], the IC50 in data set [1] was 22.1 ± 1.81 µM; in data set [2], 45.7 ± 2.69 µM; in data set [3], above 100 µM. Besides, the inhibition at 10 µM in [4] worked out at 8.66 ± 0.7%; in [6], 4.91 ± 1.4%; in data set [7] it was 4.84 ± 0.46%. Besides, the inhibition at 100 µM in data set [4] came out at 11.3 ± 1.37%; in [6], 9.21 ± 0.33%; in data set [7] it was 9.95 ± 1.28%. The “Inhibitory activities (%) Trypsin” value in [5] (sample 10 μM) was 5.31 ± 0.39%; in data set [5] (sample 100 μM), 4.72 ± 0.45%. Moreover, the “Inhibition mode on BACE1” value in [8] is listed as “noncompetitive inhibition”. In addition, the Ki in [8] amounted to 42.7 µM; in data set [9], 53.9 µM. Further, the “Inhibition mode on AChE” value in data set [9] was “noncompetitive inhibition”. Besides, the “Inhibitory activity against cholinesterases” value in [10] is recorded as “low inhibitory activity”. The “Effect on cadmium-induced damage in the brains of rats” value in [11] is “significantly attenuated cadmium-induced oxidative stress and mitochondrial dysfunction”. In addition, in [12], the BBB crossing entry is given as “cross the BBB”. The “Presence in the rat brain” value in data set [13] (after oral administration of hesperidin ref 31) is “detected in the rat brain”. For the same compound, the “Presence in the striatum of rat brains” value in data set [13] (intravenous 50 mg/kg ref 29) was “detected in the striatum of rat brains”.
Consider `COc1cc(O[C@@H]2O[C@H](CO[C@@H]3O[C@H](CO)[C@@H](O)[C@H](O)[C@H]3O)[C@@H](O)[C@H](O)[C@H]2O)c2c(O)c3c(=O)cc(C)oc3cc2c1` [Rubrofusarin-6-O-β-D-gentiobioside], for which, in [14], the IC50 is 15.9 ± 0.32 µM.
For the compound `COc1ccc([C@@H]2CC(=O)c3c(O)cc(O[C@@H]4O[C@H](CO[C@@H]5O[C@@H](C)[C@H](O)[C@@H](O)[C@H]5O)[C@@H](O)[C@H](O)[C@H]4O)cc3O2)cc1O` [Hesperidin, hesperidin], the half-maximal inhibitory concentration (IC50) amounted to 17 ± 1.25 µM in [1], 22.8 ± 2.78 µM in data set [2] and 48.1 ± 0.74 µM in data set [3]. Besides, the inhibition at 10 µM in [4] came out at 8.53 ± 1.05%; in data set [6], 3.19 ± 0.28%; in [7], 6.91 ± 0.83%. In addition, the results for the inhibition at 100 µM in data set [4], in data set [6] and in [7] were 9.19 ± 1.2%, 4.11 ± 0.34% and 6 ± 1.33%, respectively. Besides, the “Inhibitory activities (%) Trypsin” value in data set [5] (sample 10 μM) is reported as 2.27 ± 0.30%; in data set [5] (sample 100 μM) it was 1.41 ± 0.22%. The “Inhibition mode on BACE1” value in [8] is on record as “noncompetitive inhibition”. Also, the inhibition constant (Ki) came out at 39.4 µM in [8], 21.4 µM in data set [9] and 93.6 µM in data set [15] (Dixon plot). The “Inhibition mode on AChE” value in data set [9] is “noncompetitive inhibition”. In addition, the “Inhibition mode on BChE” value in [15] (Dixon and Lineweaver–Burk plots) is listed as “noncompetitive inhibition”. Moreover, in [10], the “Inhibitory activity against cholinesterases” value is “low inhibitory activity”. The “Neuroprotective effect in APP/PS1 Tg mice” value in [16] was “recovered microglial activation, APP expression, Aβ deposition, and behavioral dysfunction”. In data set [17], the “Effect of chronic administration in APPswe/PS1dE9 Tg mice” value was “attenuated oxidative damage, increased anti-oxidative defense, and alleviated cognitive impairment”. The “Presence in brain homogenates” value in data set [13] (systemic administration of hesperidin to rats ref 30) was “presence of hesperidin was confirmed by brain homogenates”.
Take `O=C1CC(c2ccc(O)cc2)Oc2cc(O)cc(O)c21` (stereo not drawn) [Naringenin]: the IC50 in data set [1] is 30.3 ± 2.06 µM; in data set [2] it was 42.7 ± 4.3 µM; in [3], above 100 µM. Further, the inhibition at 10 µM was 5.15 ± 0.98% in data set [4], 8.77 ± 0.74% in data set [6] and 9.74 ± 0.41% in data set [7]. Also, the figures for the inhibition at 100 µM in data set [4], in data set [6] and in data set [7] were 6.95 ± 1.52%, 6.88 ± 0.89% and 10.5 ± 1.17%, respectively. The figures for the “Inhibitory activities (%) Trypsin” value in data set [5] (sample 10 μM) and in data set [5] (sample 100 μM) were 7.80 ± 1.25% and 5.84 ± 0.75%, respectively. For the same compound, in data set [8], the “Inhibition mode on BACE1” value is given as “noncompetitive inhibition”. Besides, the Ki worked out at 47.1 µM in data set [8] and 45.4 µM in data set [9]. The “Inhibition mode on AChE” value in data set [9] is on record as “noncompetitive inhibition”. In addition, in data set [18], the “Effect on scopolamine-induced amnesia” value is listed as “significantly mitigated scopolamine-induced amnesia”. In data set [12], the BBB crossing result is given as “cross the BBB”. For the same compound, the “Presence in cerebral cortexes of rats” value in data set [13] (intravenous naringenin 20 mg/kg ref 28) was “identified”.
